Data as given in US9096641B2, “Imidazolyl progesterone antagonists” (Evestra, Inc., priority 2013, dated 2015).

How the values were obtained:
progesterone receptor = biological target: T1, progesterone receptor (Homo sapiens, UniProt P06401); test: Progesterone Antagonist Screen (SelectScreen cell-based nuclear receptor profiling, GeneBLAzer beta-lactamase reporter); details: relative to RU486, which is 100%; progesterone receptor-LBD-UAS-bla HEK 293T cells; activated by control agonist R5020 at EC80
T1 construct: host or cells: HEK 293T
T1 sequence (P06401 679-913 limits assumed): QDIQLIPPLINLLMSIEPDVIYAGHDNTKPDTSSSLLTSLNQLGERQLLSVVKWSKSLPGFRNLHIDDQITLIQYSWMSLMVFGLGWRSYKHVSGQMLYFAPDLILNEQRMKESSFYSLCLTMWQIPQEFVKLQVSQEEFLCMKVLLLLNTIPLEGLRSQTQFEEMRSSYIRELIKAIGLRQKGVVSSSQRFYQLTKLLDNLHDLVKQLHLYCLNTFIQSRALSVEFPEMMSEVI
Experimental: (§1) Determination of the agonist/antagonist nature of the test compounds was carried out using Invitrogen's SelectScreen™ Cell-based nuclear receptor profiling service which uses the GeneBLAzer® Beta-lactamase reporter technology. Basically this assay uses a Beta-lactamase cDNA under transcriptional control of an Upstream Activator Sequence (UAS). The UAS is activated by the GAL4 transcription factor DNA binding domain (DBD), which is expressed as a fusion protein with the target receptor ligand binding domain (LBD). Upon ligand binding, the GAL4(DBD)-NR(LDB) binds to the UAS, which controls transcription of Beta-lactamase. Beta-lactamase cleaves a special engineered fluorescent substrate which results in a change in the measured fluorescence wavelength.
The generalized protocol used for the Progesterone Antagonist Screen, activated by control Agonist R5020 is as follows:
(§2) The progesterone receptor-LBD-UAS-bla HEK 293T cells are thawed and prepared as described above for the Agonist screen. 4 μL of a 10× serial dilution of control antagonist RU486 (starting concentration, 100 nM) or test compounds are added to appropriate wells of a TC-Treated assay plate. 32 μL of cell suspension is added to the wells which is then pre-incubated at 37° C./5% CO2 in a humidified incubator with test compounds and control antagonist titration for 30 min. 4 μL of a 10× control agonist (see above) at the predetermined EC80 concentration is added to wells containing the control antagonist or test compounds. The plate is incubated for 16-24 h at 37° C./5% CO2 in a humidified incubator. 8 μL of 1 μM Substrate Loading Solution is added to each well and the plate is incubated for 2 h at room temperature. The plate is then read on a fluorescence plate reader (Tecan Safire).

glucocorticoid receptor = biological target: T2, glucocorticoid receptor (Homo sapiens, UniProt P04150); test: Glucocorticoid Antagonist Screen (SelectScreen cell-based nuclear receptor profiling, GeneBLAzer beta-lactamase reporter); details: relative to RU486, which is 100%; glucocorticoid receptor-LBD-UAS-bla HEK 293T cells; activated by control agonist Dexamethasone
T2 construct: host or cells: HEK 293T
T2 sequence (P04150 524-758 limits assumed): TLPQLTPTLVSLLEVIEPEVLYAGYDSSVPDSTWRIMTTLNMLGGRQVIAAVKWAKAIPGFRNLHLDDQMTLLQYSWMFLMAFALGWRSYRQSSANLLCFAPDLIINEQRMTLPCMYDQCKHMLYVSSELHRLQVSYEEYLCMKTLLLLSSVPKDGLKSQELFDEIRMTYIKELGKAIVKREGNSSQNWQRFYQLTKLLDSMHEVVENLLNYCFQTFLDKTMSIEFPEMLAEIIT
Experimental: as §1, §2
The generalized protocol for the Glucocorticoid Antagonist Screen activated by control Agonist Dexamethasone was carried out as described for the Progesterone Antagonist Screen with the exception that glucocorticoid receptor-LBD-UAS-bla HEK 293T cells were used. The control antagonist used for the glucocorticoid assay was also RU486.

Row | SMILES | Progesterone Antagonist (%) (progesterone receptor) | Glucocorticoid Antagonist (%) (glucocorticoid receptor)
1 | C[C@]12C[C@H](c3ccc(-n4ccnc4)cc3)C3=C4CCC(=O)C=C4CC[C@H]3[C@@H]1CC[C@@]2(O)C(F)(F)C(F)(F)F [Ia, 11β-(4′-(1-imidazolyl)phenyl)-17β-hydroxy-17-(1,1,2,2,2-pentafluoroethyl)-estra-4,9-diene-3-one] | 267 | 9
2 | C[C@]12C[C@H](c3ccc(-n4ccnc4)cc3)C3=C4CCC(=O)C=C4CC[C@H]3[C@@H]1CC[C@@]2(O)C#CC(F)(F)F [Ib, 11β-(4′-(1-imidazolyl)phenyl)-17β-hydroxy-17-(3,3,3-trifluoro-1-propynyl)-estra-4,9-diene-3-one] | 34 | 83
3 | C[C@]12C[C@H](c3ccc(-n4ccnc4)cc3)C3=C4CCC(=O)C=C4CCC3C1CC[C@@]2(O)/C=C/C(F)(F)F (stereo partly drawn) [Ic, 11β-(4′-(1-imidazolyl)phenyl)-17β-hydroxy-17-(3,3,3-trifluoroprop-1(E)-enyl)-estra-4,9-diene-3-one] | 54 | 31
4 | C=CC(F)(F)[C@]1(O)CC[C@H]2[C@@H]3CCC4=CC(=O)CCC4=C3[C@@H](c3ccc(-n4ccnc4)cc3)C[C@@]21C [Id, 11β-(4′-(1-imidazolyl)phenyl)-17β-hydroxy-17-(1,1-difluoroprop-2-enyl)-estra-4,9-diene-3-one] | 90 | 13
5 | C=C1CCOC12CCC1C3CCC4=CC(=O)CCC4=C3[C@@H](c3ccc(-n4ccnc4)cc3)C[C@@]12C (stereo partly drawn) [Ie, 11β-(4′-[1-imidazolyl]phenyl)-17,23-epoxy-19,24-dinor-17α-chola-4,9,20-triene-3-one] | 163 | 5
6 | CC(=O)c1ccc([C@H]2C[C@@]3(C)[C@@H](CC[C@@]3(O)C(F)(F)C(F)(F)F)[C@@H]3CCC4=CC(=O)CCC4=C32)cc1 [ZK 230211, reference compound] | 81 | 6
